This note sets out measurements from US20060079453A1, “Hla binding peptides and their uses” (priority 2002, published 2006).

Among the targets are HLA-DR DRB1*0401 (DR4) (Homo sapiens, UniProt P01903+P01911, A100K/A169T/F76Y/I96L/K127E/L162R/M171V/N62H/P40V/Q125Y/R42H/S133A/S149N/S66Y/V115G/V209L/W38E); HLA-DR DRB1*0701 (DR7) (Homo sapiens, UniProt P01903+P01911, A100R/A102G/A103Q/D57E/D86V/E43K/F76Y/K127E/L162R/M171V/P40G/Q125H/Q99D/R33Q/R42Y/R54Q/S133A/S66F/T210M/V115G/Y107V/Y59L/Y89S); HLA-DR DRB1*0101 (DR1) (Homo sapiens, UniProt P01903+P01911, A100R/D57E/F55L/F60I/F76Y/I96L/L162R/M171V/P40L/Q125E/R42F/V115G/Y59C); HLA-DR DRB1*0901 (DR9) (Homo sapiens, UniProt P01903+P01911, A100R/A103E/D57H/D86V/F55Y/F60I/F76Y/I96F/K127E/L162R/M171V/P40D/Q125H/Q99R/R33Q/R42F/S133A/S66N/T210M/V115G/W38K/Y107V/Y59G/Y89S); HLA-DR DRB1*0802 (DR8) (Homo sapiens, UniProt P01903+P01911, A100R/A103L/A169T/F76Y/H45Y/I96F/K41T/L162R/M171V/P40S/Q125H/Q178H/Q39Y/Q99D/R218S/R42G/S66Y/V115G/W38E).

What all share (assay): biochemical
Assay type in all cases: binding

Another experiment has as its target HLA-DR DRB1*0301 (DR3) (Homo sapiens, UniProt P01903+P01911, A100K/A102G/A103R/A169T/F55Y/I96L/K41T/L162R/M171V/P40S/Q125H/Q178H/Q39Y/R42S/S66N/T106N/T262R/W38E/Y61H). Particulars: read-out: DRB1 *0301.
The next experiment deals with HLA-DR DRB1*1302 (DR13) (Homo sapiens, UniProt P01903+P01911, A100E/A169T/K41T/L162R/M171V/P40S/Q125H/Q178H/Q39Y/Q99D/R42S/S66N/T262R/V115G/W38E/Y61H). Particulars: DRBI *1302.
HLA-DR DRB1*1302 (DR13), sequence (P01903 26-254 limits assumed, other chains not shown): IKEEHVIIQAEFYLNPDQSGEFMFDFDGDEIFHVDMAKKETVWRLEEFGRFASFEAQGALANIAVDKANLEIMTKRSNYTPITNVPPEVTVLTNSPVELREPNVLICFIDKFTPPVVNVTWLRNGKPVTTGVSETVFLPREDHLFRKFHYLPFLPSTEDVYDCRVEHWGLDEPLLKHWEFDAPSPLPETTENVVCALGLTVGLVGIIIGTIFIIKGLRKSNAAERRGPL
The target in another experiment is HLA-DR DRB5*0101 (DR51) (Homo sapiens, UniProt P01903+Q30154). Particulars: DRB5 *0101.
Another experiment addresses HLA-DR DRB4*0101 (DR53) (Homo sapiens, UniProt P01903+P13762, G164S). As to conditions: DRB4 *0101.
For the next experiment, the target named is HLA-DR DRB1*1501 (DR15) (Homo sapiens, UniProt P01903+P01911). As to conditions: DRBI *1501.

Read-outs that look alike come from different tables or passages of the source. No end group written: not given here.

HLA-DR DRB1*0301 (DR3), sequence (P01903 26-254 limits assumed, other chains not shown): as above

For the molecule QAISPRTLNSPAIF, the IC50 worked out at 298 µM on HLA-DR DRB1*0301 (DR3); 6.21 µM on HLA-DR DRB1*0401 (DR4) (read-out: DRB1 *0401); 39.7 µM on HLA-DR DRB1*0701 (DR7) (read-out: DRB1 *0701); 1.96 µM at HLA-DR DRB1*0101 (DR1) (read-out: DRB1 *0101); 286 µM on HLA-DR DRB1*0901 (DR9) (read-out: DRB1 *0901).
For SVTWIGAAPLILSPI, in that order: over 81.8 µM, 3.15 µM, 0.083 µM, 0.0041 µM and 0.03 µM.
As to KCLVISQVSNSDSYK, the IC50 was 0.016 µM against HLA-DR DRB1*0401 (DR4) (DRB1 *0401); 0.236 µM on HLA-DR DRB1*1302 (DR13); over 42.6 µM against HLA-DR DRB5*0101 (DR51); 46.4 µM against HLA-DR DRB1*0701 (DR7) (DRB1 *0701); 0.628 µM at HLA-DR DRB1*0101 (DR1) (DRB1 *0101); 0.081 µM at HLA-DR DRB4*0101 (DR53). Also, at HLA-DR DRB1*0802 (DR8), the IC50 stood at 17.9 µM.
Regarding KKNIIALLIIPPKIIA, the IC50 on HLA-DR DRB1*0701 (DR7) (read-out: DRB1 *0701) turned out to be 0.495 µM; on HLA-DR DRB1*0101 (DR1) (read-out: DRB1 *0101), 0.013 µM; at HLA-DR DRB1*0802 (DR8) (read-out: DRB1 *0802), 0.157 µM.
For GYKVLVLNPSV, the IC50 on HLA-DR DRB1*0301 (DR3) was determined as 72.4 µM; at HLA-DR DRB1*0401 (DR4) (read-out: DRB1 *0401) it was 0.027 µM; at HLA-DR DRB1*0101 (DR1) (read-out: DRB1 *0101), 0.016 µM; on HLA-DR DRB1*0901 (DR9) (read-out: DRB1 *0901), 8.79 µM.
For the molecule LCNFKKNIIALLIIP, the IC50 on HLA-DR DRB1*0401 (DR4) (read-out: DRB1 *0401) came out at 0.312 µM; at HLA-DR DRB1*0101 (DR1) (read-out: DRB1 *0101) it was 0.0097 µM; on HLA-DR DRB1*0802 (DR8) (read-out: DRB1 *0802) it was 21.3 µM.
As to MIMIKFMGVIYIMII, the IC50 was 0.312 µM against HLA-DR DRB1*0401 (DR4) (DRB1 *0401), 68 µM against HLA-DR DRB1*0701 (DR7) (DRB1 *0701), 2.9 µM against HLA-DR DRB1*0101 (DR1) (DRB1 *0101) and 66.1 µM on HLA-DR DRB1*0802 (DR8).
As for TYSYSFDSLFSAVKN, the IC50 came out at 0.073 µM on HLA-DR DRB1*0401 (DR4) (read-out: DRB1 *0401) and 2.26 µM on HLA-DR DRB1*0802 (DR8) (read-out: DRB1 *0802).
For GGVLVNEILNHMK, the IC50 is 0.7 µM on HLA-DR DRB1*0301 (DR3), 0.359 µM at HLA-DR DRB1*0401 (DR4) (read-out: DRB1 *0401), 29.5 µM on HLA-DR DRB1*0701 (DR7) (read-out: DRB1 *0701) and 54.4 µM at HLA-DR DRB1*0901 (DR9) (read-out: DRB1 *0901).
For the molecule YGIIVPVLTSLFNKV, the IC50 at HLA-DR DRB1*0401 (DR4) (read-out: DRB1 *0401) is 0.002 µM; on HLA-DR DRB1*0701 (DR7) (read-out: DRB1 *0701), 0.06 µM; on HLA-DR DRB1*0101 (DR1) (read-out: DRB1 *0101), 0.006 µM; at HLA-DR DRB1*0802 (DR8) (read-out: DRB1 *0802), 0.793 µM.
Regarding `CC(C)C[C@H](NC(=O)[C@H](CCC(N)=O)NC(=O)[C@H](CCC(N)=O)NC(=O)[C@@H](N)Cc1ccccc1)C(=O)N[C@@H](Cc1ccccc1)C(=O)N[C@@H](CC(C)C)C(=O)N[C@@H](CC(N)=O)C(=O)N[C@H](C(=O)N[C@@H](CC(C)C)C(=O)N[C@@H](CO)C(=O)N[C@@H](Cc1ccccc1)C(=O)N[C@H](C(=O)N[C@@H](CS)C(=O)N1CCC[C@H]1C(=O)N[C@@H](Cc1c[nH]c2ccccc12)C(=O)O)C(C)C)[C@@H](C)O`, the IC50 on HLA-DR DRB1*1501 (DR15) stood at 24.8 µM; against HLA-DR DRB1*1302 (DR13), 0.0093 µM; on HLA-DR DRB1*0901 (DR9) (DRB1 *0901) it was 2.06 µM.
Turning to FPTIPLSRLFDNAM, the IC50 was determined as 46.7 µM on HLA-DR DRB1*0301 (DR3); 9.46 µM at HLA-DR DRB1*0401 (DR4) (read-out: DRB1 *0401); 5.53 µM at HLA-DR DRB1*0701 (DR7) (read-out: DRB1 *0701); 6.92 µM at HLA-DR DRB1*0101 (DR1) (read-out: DRB1 *0101); 15 µM on HLA-DR DRB1*0901 (DR9) (read-out: DRB1 *0901).
In the case of NYELSKKAVIFTPIY, the IC50 against HLA-DR DRB1*0401 (DR4) (DRB1 *0401) amounted to 0.536 µM; on HLA-DR DRB1*0701 (DR7) (DRB1 *0701), 5.5 µM; at HLA-DR DRB1*0101 (DR1) (DRB1 *0101), 0.713 µM; against HLA-DR DRB1*0802 (DR8) it was 0.141 µM.
